The values that follow come from patent US20240368173A1, “TRICYCLIC GPR65 MODULATORS” (PATHIOS THERAPEUTICS LIMITED, priority 2021, published 2024).

The target of one assay is human recombinant GPR65 (Homo sapiens, UniProt Q8IYL9). The experiment in a line: Human GPR65 cAMP HTRF antagonist assay. It is filed as cell-based.
Sequence of human recombinant GPR65 (Q8IYL9 whole entry): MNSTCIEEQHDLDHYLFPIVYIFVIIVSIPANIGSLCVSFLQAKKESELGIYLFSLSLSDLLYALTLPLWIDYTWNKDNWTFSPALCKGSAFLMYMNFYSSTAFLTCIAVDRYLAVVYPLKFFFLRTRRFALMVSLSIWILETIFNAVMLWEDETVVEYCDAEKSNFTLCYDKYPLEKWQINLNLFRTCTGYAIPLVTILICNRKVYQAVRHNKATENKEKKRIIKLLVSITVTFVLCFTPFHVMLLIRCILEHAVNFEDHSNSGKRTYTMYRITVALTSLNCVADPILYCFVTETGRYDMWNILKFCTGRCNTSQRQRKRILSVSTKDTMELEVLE
Conditions: not given
The method, boiled down: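 1321N1 astrocytoma cells stably expressing hrGPR65, with IBMX and EDTA, were preincubated with compound 30 min at room temperature, then acid-activated at assay pH 7.2 (control pH 7.9) for 30 min. cAMP read by HTRF (665/620 nm ratio); IC50 from 4-parameter fit normalised to high/low controls.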
On the technique in general: Time-resolved FRET reads energy transfer from a long-lived donor to a nearby acceptor.
As usually defined, the IC50 is the point on the concentration scale where inhibition reaches its midpoint. In the case of `O=C(Nc1ccc(Br)c(C(F)(F)F)c1)N1[C@H]2CC[C@@H]1c1n[nH]c(=O)cc1C2` [Compound 47, (6S,9R)-N-(4-Bromo-3-(trifluoromethyl)phenyl)-3-oxo-3,5,6,7,8,9-hexahydro-2H-6,9-epiminocyclohepta[c]pyridazine-10-carboxamide], the IC50 is below 500 nM. The same measure, in the same setting: under `O=C(Nc1ccc(Br)c(C(F)(F)F)c1)N1[C@@H]2CC[C@H]1c1n[nH]c(=O)cc1C2` [Compound 48, (6R,9S)-N-(4-Bromo-3-(trifluoromethyl)phenyl)-3-oxo-3,5,6,7,8,9-hexahydro-2H-6,9-epiminocyclohepta[c]pyridazine-10-carboxamide] stands 500 to 5000 nM.

As for `O=C(Nc1ccc(Cl)c(Br)c1)N1[C@H]2CC[C@@H]1c1n[nH]c(=O)cc1C2` [Compound 49, (6S,9R)-N-(3-Bromo-4-chlorophenyl)-3-oxo-3,5,6,7,8,9-hexahydro-2H-6,9-epiminocyclohepta[c]pyridazine-10-carboxamide], the IC50 is below 500 nM. In the case of `O=C(Nc1ccc(-c2ccsc2)cc1)N1[C@H]2CC[C@@H]1c1ccnc(F)c1C2` [Compound 55, (5R,8S)-1-Fluoro-N-(4-(thiophen-3-yl)phenyl)-6,7,8,9-tetrahydro-5H-5,8-epiminocyclohepta[c]pyridine-10-carboxamide], the IC50 was below 500 nM.

As for `O=C(Nc1ccc(C2COC2)cc1)N1[C@H]2CC[C@@H]1c1ccnc(F)c1C2` [Compound 58, (5R,8S)-1-Fluoro-N-(4-(oxetan-3-yl)phenyl)-6,7,8,9-tetrahydro-5H-5,8-epiminocyclohepta[c]pyridine-10-carboxamide], the IC50 is 500 to 5000 nM. On to `O=C(Nc1ccc(C2CC2)c(Cl)c1)N1[C@H]2CC[C@@H]1c1ccnc(F)c1C2` [Compound 59, (5R,8S)-N-(3-Chloro-4-cyclopropylphenyl)-1-fluoro-6,7,8,9-tetrahydro-5H-5,8-epiminocyclohepta[c]pyridine-10-carboxamide], for which the IC50 is below 500 nM. On to `CC(C)(O)c1ccc(NC(=O)N2[C@H]3CC[C@@H]2c2ccnc(F)c2C3)cc1Cl` [Compound 60, (5R,8S)—N-(3-Chloro-4-(2-hydroxypropan-2-yl)phenyl)-1-fluoro-6,7,8,9-tetrahydro-5H-5,8-epiminocyclohepta[c]pyridine-10-carboxamide], for which the IC50 is below 500 nM. In the case of `O=C(Nc1cc(Cl)c(C2CC2)cc1F)N1[C@H]2CC[C@@H]1c1ccnc(F)c1C2` [Compound 63, (5R,8S)-N-(5-Chloro-4-cyclopropyl-2-fluorophenyl)-1-fluoro-6,7,8,9-tetrahydro-5H-5,8-epiminocyclohepta[c]pyridine-10-carboxamide], the IC50 is below 500 nM. In the case of `Cc1nnc(-c2cc(F)c(NC(=O)N3[C@H]4CC[C@@H]3c3ccnc(F)c3C4)cc2Cl)s1` [Compound 64, (5R,8S)-N-(5-Chloro-2-fluoro-4-(5-methyl-1,3,4-thiadiazol-2-yl)phenyl)-1-fluoro-6,7,8,9-tetrahydro-5H-5,8-epiminocyclohepta[c]pyridine-10-carboxamide], the IC50 is below 500 nM. Still for that read-out and setting: under `O=C(Nc1cc(Cl)c(-c2nnc(C(F)(F)F)s2)cc1F)N1[C@H]2CC[C@@H]1c1ccnc(F)c1C2` [Compound 65, (5R,8S)-N-(5-Chloro-2-fluoro-4-(5-(trifluoromethyl)-1,3,4-thiadiazol-2-yl)phenyl)-1-fluoro-6,7,8,9-tetrahydro-5H-5,8-epiminocyclohepta[c]pyridine-10-carboxamide] stands below 500 nM. For the compound `O=C(Nc1ccc(-c2nnc(C(F)(F)F)s2)cc1)N1[C@H]2CC[C@@H]1c1ccnc(F)c1C2` [Compound 66, (5R,8S)-1-Fluoro-N-(4-(5-(trifluoromethyl)-1,3,4-thiadiazol-2-yl)phenyl)-6,7,8,9-tetrahydro-5H-5,8-epiminocyclohepta[c]pyridine-10-carboxamide], the IC50 is below 500 nM.

Turning to `O=C(Nc1cc(Cl)c(OC2CCC2)cc1F)N1[C@H]2CC[C@@H]1c1ccnc(F)c1C2` [Compound 67, (5R,8S)-N-(5-Chloro-4-cyclobutoxy-2-fluorophenyl)-1-fluoro-6,7,8,9-tetrahydro-5H-5,8-epiminocyclohepta[c]pyridine-10-carboxamide], the IC50 was below 500 nM.

For `O=C(Nc1ccc(OC2CCC2)c(Cl)c1)N1[C@H]2CC[C@@H]1c1ccnc(F)c1C2` [Compound 69, (5R,8S)-N-(3-Chloro-4-cyclobutoxyphenyl)-1-fluoro-6,7,8,9-tetrahydro-5H-5,8-epiminocyclohepta[c]pyridine-10-carboxamide], the IC50 is below 500 nM.

On to `CC(C)Oc1ccc(NC(=O)N2[C@H]3CC[C@@H]2c2ccnc(F)c2C3)cc1Cl` [Compound 70, (5R,8S)-N-(3-Chloro-4-isopropoxyphenyl)-1-fluoro-6,7,8,9-tetrahydro-5H-5,8-epiminocyclohepta[c]pyridine-10-carboxamide], for which the IC50 is below 500 nM.

The assay is the same for the next values; noted with them: 1321N1-hrGPR65 cells, cAMP HTRF, assay pH 7.2; read-out: hGPR65 IC50 (Activity of selected compounds according to the invention).
Take `O=C(Nc1ccc(Cl)c(Br)c1)N1[C@@H]2CC[C@H]1c1n[nH]c(=O)cc1C2` [Compound 50, (6R,9S)-N-(3-Bromo-4-chlorophenyl)-3-oxo-3,5,6,7,8,9-hexahydro-2H-6,9-epiminocyclohepta[c]pyridazine-10-carboxamide]: the IC50 is above 5000 nM.

`COc1ccc2c(n1)C[C@@H]1CC[C@H]2N1C(=O)Nc1cc(Cl)c(Cl)cc1F` [Compound 54, (5R,8S)-N-(4,5-Dichloro-2-fluorophenyl)-2-methoxy-6,7,8,9-tetrahydro-5H-5,8-epiminocyclohepta[b]pyridine-10-carboxamide]: the IC50 is above 5000 nM. Same read-out and setting: as for `Cc1ncc(-c2ccc(NC(=O)N3[C@H]4CC[C@@H]3c3ccnc(F)c3C4)cc2)o1` [Compound 56, (5R,8S)-1-Fluoro-N-(4-(2-methyloxazol-5-yl)phenyl)-6,7,8,9-tetrahydro-5H-5,8-epiminocyclohepta[c]pyridine-10-carboxamide], the figure is 500 to 5000 nM; as for `O=C(Nc1ccc(C2CCOCC2)cc1)N1[C@H]2CC[C@@H]1c1ccnc(F)c1C2` [Compound 57, (5R,8S)-1-Fluoro-N-(4-(tetrahydro-2H-pyran-4-yl)phenyl)-6,7,8,9-tetrahydro-5H-5,8-epiminocyclohepta[c]pyridine-10-carboxamide], 500 to 5000 nM. `CC1(c2ccc(NC(=O)N3[C@H]4CC[C@@H]3c3ccnc(F)c3C4)cc2)COC1` [Compound 61, (5R,8S)-1-Fluoro-N-(4-(3-methyloxetan-3-yl)phenyl)-6,7,8,9-tetrahydro-5H-5,8-epiminocyclohepta[c]pyridine-10-carboxamide]: the IC50 is above 5000 nM. On the same count and under the same terms, as for `O=C(Nc1ccc(N2CC3CCC(C2)O3)cc1)N1[C@H]2CC[C@@H]1c1ccnc(F)c1C2` [Compound 62, (5R,8S)-N-(4-(8-Oxa-3-azabicyclo[3.2.1]octan-3-yl)phenyl)-1-fluoro-6,7,8,9-tetrahydro-5H-5,8-epiminocyclohepta[c]pyridine-10-carboxamide], the figure is above 5000 nM. In the case of `O=C(Nc1cc(Cl)c(C2(O)CC2)cc1F)N1[C@H]2CC[C@@H]1c1ccnc(F)c1C2` [Compound 68, (5R,8S)-N-(5-Chloro-2-fluoro-4-(1-hydroxycyclopropyl)phenyl)-1-fluoro-6,7,8,9-tetrahydro-5H-5,8-epiminocyclohepta[c]pyridine-10-carboxamide], the IC50 was 500 to 5000 nM.
